Reference: PubChem BioAssay AID1963971 (Molecular Pharmacology Branch, DTP, NCI, 2024)

Test system: 953936-095-R-J2-PDC spheroids with HUVEC/MSC, viability
Assay: Anticancer human tumor 953936-095-R-J2-PDC patient-derived cervical squamous cell carcinoma cell line growth inhibition [PI3K]
Details: for IC50: curve of first compound; for viability, T/C: stronger effect = lower value
In short: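 Tumor cells were combined with HUVEC and MSCs into spheroids, then dosed with PI3K-inhibitor combinations over half-log ranges capped near clinical Cmax or 10 microM.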
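Note: spheroids exposed to compounds for seven days before read-out.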

`CC1(C)CCC(CN2CCN(c3ccc(C(=O)NS(=O)(=O)c4ccc(NCC5CCOCC5)c([N+](=O)[O-])c4)c(Oc4cnc5[nH]ccc5c4)c3)CC2)=C(c2ccc(Cl)cc2)C1` + CC(Nc1ncnc2nc[nH]c12)c1cc2cccc(Cl)c2c(=O)n1-c1ccccc1 showed an IC50 (second compound 0.0316 µM) of 7.41 µM, an IC50 (second compound 0.1 µM) of 6.33 µM and an IC50 (second compound 0.316 µM) of 7.43 µM. It also gave an IC50 (second compound 1 µM) of 7.16 µM, an IC50 (second compound 3.16 µM) of 6.61 µM and an IC50 (second compound 10 µM) of 4.9 µM. It also gave a viability, T/C (second compound 0.0316 µM, first compound 0.0316 µM) of 84.4%, a viability, T/C (second compound 0.0316 µM, first compound 0.1 µM) of 102% and a viability, T/C (second compound 0.0316 µM, first compound 0.316 µM) of 101%. The viability, T/C (second compound 0.0316 µM, first compound 1 µM) was 90.2%, the viability, T/C (second compound 0.0316 µM, first compound 3.16 µM) was 94.7% and the viability, T/C (second compound 0.0316 µM, first compound 10 µM) was 34.3%. For the same molecule, the viability, T/C (second compound 0.1 µM, first compound 0.0316 µM) was 93.8%, the viability, T/C (second compound 0.1 µM, first compound 0.1 µM) was 104% and the viability, T/C (second compound 0.1 µM, first compound 0.316 µM) was 112%. For the same molecule, the viability, T/C (second compound 0.1 µM, first compound 1 µM) was 98%, the viability, T/C (second compound 0.1 µM, first compound 3.16 µM) was 78.8% and the viability, T/C (second compound 0.1 µM, first compound 10 µM) was 31%. For the same molecule, the viability, T/C (second compound 0.316 µM, first compound 0.0316 µM) was 101%, the viability, T/C (second compound 0.316 µM, first compound 0.1 µM) was 93.9% and the viability, T/C (second compound 0.316 µM, first compound 0.316 µM) was 104%. It also gave a viability, T/C (second compound 0.316 µM, first compound 1 µM) of 96.3%, a viability, T/C (second compound 0.316 µM, first compound 3.16 µM) of 90.5% and a viability, T/C (second compound 0.316 µM, first compound 10 µM) of 35.8%. For the same molecule, the viability, T/C (second compound 1 µM, first compound 0.0316 µM) was 106%, the viability, T/C (second compound 1 µM, first compound 0.1 µM) was 97.1% and the viability, T/C (second compound 1 µM, first compound 0.316 µM) was 82.5%. It also gave a viability, T/C (second compound 1 µM, first compound 1 µM) of 88.7%, a viability, T/C (second compound 1 µM, first compound 3.16 µM) of 88.8% and a viability, T/C (second compound 1 µM, first compound 10 µM) of 34.4%. For the same molecule, the viability, T/C (second compound 3.16 µM, first compound 0.0316 µM) was 80.4%, the viability, T/C (second compound 3.16 µM, first compound 0.1 µM) was 79.4% and the viability, T/C (second compound 3.16 µM, first compound 0.316 µM) was 80.6%. For the same molecule, the viability, T/C (second compound 3.16 µM, first compound 1 µM) was 80.5%, the viability, T/C (second compound 3.16 µM, first compound 3.16 µM) was 67.7% and the viability, T/C (second compound 3.16 µM, first compound 10 µM) was 39.2%. The viability, T/C (second compound 10 µM, first compound 0.0316 µM) was 57.5%, the viability, T/C (second compound 10 µM, first compound 0.1 µM) was 70.3% and the viability, T/C (second compound 10 µM, first compound 0.316 µM) was 59.6%. The viability, T/C (second compound 10 µM, first compound 1 µM) was 60.8%, the viability, T/C (second compound 10 µM, first compound 3.16 µM) was 62% and the viability, T/C (second compound 10 µM, first compound 10 µM) was 31.1%.
